Common to all, as to assay type: functional, cell-based
Assay [1] deals with MCF7. Nature of the assay: Cytotoxicity against human MCF7 cells assessed as reduction in cell viability incubated for 48 hrs by MTT assay. To be noted: MCF7, 48 h. On the technique in general: Tetrazolium dyes change colour on reduction, which living cells bring about.
The subject of assay [2] is HeLa. The experiment in a line: Cytotoxicity against human HeLa cells assessed as reduction in cell viability after 72 hrs by MTT assay.
In assay [3] the test system is HepG2. Nature of the assay: Cytotoxicity against human HepG2 cells assessed as reduction in cell viability incubated for 48 hrs by MTT assay. The settings on record: HepG2, 48 h.
Assay [4] has as its system HT-29. Nature of the assay: Cytotoxicity against human HT-29 cells assessed as reduction in cell viability incubated for 48 hrs by MTT assay. To be noted: HT-29, 48 h.

pIC50: −log10 of the molar value.

The term pIC50 denotes the negative decadic logarithm of the IC50, by convention in mol/L. On to `Cc1nccc2c1[nH]c1cc(OCc3cn(-c4cc(=O)oc5ccccc45)nn3)ccc12`, for which the pIC50 in assay [1] is 5.16.
As for `CC(=O)O[C@@H]1[C@H](OC(C)=O)[C@H](OC(C)=O)CO[C@H]1n1cc(COC(=O)[C@]2(C)CCC[C@@]3(C)[C@@H]4CC[C@@]5(C)C[C@]4(CC[C@@H]32)CC5=O)nn1`, the negative logarithm of the IC50 (pIC50) in assay [2] is 5.77.
As to `O=c1oc2ccccc2c(O)c1Sc1nnc(-c2ccc(Cl)cc2)o1`, the pIC50 in assay [3] is 5.46; in assay [4], 4.73.

The values are drawn from ChEMBL document CHEMBL5608172, “Structural modification strategies of triazoles in anticancer drug development” (Eur J Med Chem, 2024).
